Tested on: passive cutaneous reaction mediated by Ig G antibodies
Test: Passive cutaneous anaphylaxis in the rat (PCR), Ig G mediated, inhibition after oral administration
Type: in vivo
Settings: male Wistar rats
Method: Passive cutaneous anaphylaxis in the rat (PCR)
Passive cataneous anaphylaxis in the rat was carried out in male Wistar rats weighing 180-200 g sensitized by intradermal injection into four sites on shaved backs so as to produce a passive cutaneous reaction mediated by Ig G antibodies (a 4 hour sensitization following injection of antiserum heated at 56° C. for one hour). Antigen challenge was carried out in the same way; 1 mg of ovalbumen together with 0.5 ml of 1% Evans blue dye solution was injected intravenously and 30 minutes later, the animals were killed and the severity and area of each blue spot was scored when viewed from the reverse side of the skin.

Compound	inhibition in vivo at 1 mg/kg	inhibition in vivo at 10 mg/kg	inhibition in vivo at 0.1 mg/kg
CCOC(=O)c1cnc2n(c1=O)-c1ccccc1N(C(=O)CC)C2 [Example 7]	8.2%	5.8%	–
CCOC(=O)c1cnc2n(c1=O)-c1ccccc1N(C(=O)OCC)C2 [Example 2, Diethyl 5,6-dihydro-1-oxo-1H-pyrimido [1,2-a] quinoxaline-2,6-dicarboxylate]	31%	34.9%	–
CCOC(=O)c1cnc2n(c1=O)-c1ccccc1N(C(=O)Nc1ccccc1)C2 [Example 14, Ethyl 5,6-dihydro-1-oxo-6-phenylcarbamoyl-1H-pyrimido [1,2-a] quinoxaline-2-carboxylate]	17.6%	15.2%	–
CCOC(=O)c1cnc2n(c1=O)-c1ccccc1N(C(=O)C(C)C)C2 [Example 4]	16%	8.9%	4.1%
CCOC(=O)c1cnc2n(c1=O)-c1ccccc1N(C(=O)C1CC1)C2 [Example 5]	23%	33.3%	–
CCOC(=O)c1cnc2n(c1=O)-c1ccccc1N(C(C)=O)C2 [Example 3, Ethyl 6-acetyl-5,6-dihydro-1-oxo-1H-pyrimido [1,2-a] quinoxaline-2-carboxylate]	18.5%	33.3%	–
CCOC(=O)c1cnc2n(c1=O)-c1ccccc1N(C(=O)C1CCCC1)C2 [Example 8]	5.4%	14.8%	–
CCOC(=O)c1cnc2n(c1=O)-c1ccccc1N(C=O)C2 [Example 13, Ethyl 5,6-dihydro-6-formyl-1-oxo-1H-pyrimido [1,2-a]quinoxaline-2-carboxylate]	4.1%	12.4%	0.6%
CCOC(=O)c1cnc2n(c1=O)-c1ccccc1N(C(=O)c1ccccc1)C2 [Example 6, ethyl 6-benzoyl-1-oxo-5,6-dihydro-1H-pyrimido [1,2,-a] quinoxaline-2-carboxylate]	23%	43%	–
CCOC(=O)c1cnc2n(c1=O)-c1ccccc1NC2 [Example 1, Ethyl 5,6-dihydro-1-oxo-1H-pyrimido [1,2-a] quinoxaline-2-carboxylate]	23%	51%	–
CCOC(=O)c1cnc2n(c1=O)-c1ccccc1N(C)C2 [Example 15, Ethyl 5,6-dihydro-6-methyl-1-oxo-1H-pyrimido [1,2-a] quinoxaline-2-carboxylate]	7.7%	30.2%	7.7%

Source: patent US4472401A, “Pyrimido-quinoxalines having antiallergic properties” (Roussel Uclaf, priority 1981, dated 1984)
